Reference: patent US20110313004A1, “DEUTERATED PYRIDINONES” (CONCERT PHARMACEUTICALS, INC., priority 2008, published 2011)

experiment: Storage stability of the isolated compound at about −20° C.; assay type: physicochemical; details: storage for approximately 2 weeks at about −20° C.
From the text: Compound 139 was synthesized in the same manner as Compound 151 with the exception that 4-fluoro-2,3,5,6-d4-aniline (98% atom % D, CDN Isotopes) was used in place of D p-toluidine-d9 in step 1. ^1H NMR (CDCl3): δ 7.44 (dd, J=2.5, 9.6, 1H), 7.31 (d, J=2.5, 1H), 6.67 (d, J=9.3, 1H). MS (M+H): 226.1.
Compound 161 was synthesized in the same manner as Compound 101 (Example 1, Scheme 6, steps 1-3), except that 4-chloro-2,3,5,6-d4-aniline (98% atom % D, CDN Isotopes) was used in place of aniline in step 1. MS (M+H): 242.1.
A solution of (ethyl carbonic) 1-(4-(methoxy-d3)phenyl-d4)-6-oxo-1,6-dihydropyridine-3-carboxylic anhydride 27 (464 mg, approximately. 1.43 mmol) in THF (14.8 mL) was cooled to 10° C. and NaBD4 (98 atom % D, Cambridge Isotopes Laboratories) (295 mg, 7.01 mmol) was added. To the resulting slurry was added MeOD (1.42 mL) via syringe pump at a rate of 0.015 mL/min. Upon completion, the reaction was diluted with MeOD and concentrated nearly to dryness on a rotary evaporator. This process was repeated twice. The resulting solid was suspended in CH2Cl2, silica gel was added, the slurry concentrated to dryness in vacuo, and the resulting solid was added to the top of a silica gel column. Purification via column chromatography on an ISCO instrument (0 to 10% MeOH in CH2Cl2) provided impure final product. A further purification by ISCO (50 to 100% EtOAc in hexanes) followed by a preparatory HPLC purification afforded 116 mg of the final product 156 in approximately 85% purity. ^1H NMR (CDCl3): δ 7.43 (dd, J=2.7, 9.5, 1H), 7.31 (dd, J=0.6, 2.5, 1H), 6.66 (dd, J=0.6, 9.5, 1H). MS (M+H): 241.1.

Condition of compound after storage, decomposed:
[2H]c1c([2H])c(-n2cc(C([2H])([2H])O)ccc2=O)c([2H])c([2H])c1Cl [Compound 161, 1-(4-Chlorophenyl-d4)-5-(hydroxy(methyl-d2))-pyridin-2(1H)-one]
[2H]c1c([2H])c(-n2cc(C([2H])([2H])O)ccc2=O)c([2H])c([2H])c1F [Compound 139, 1-(4-Fluorophenyl-d4)-5-(hydroxy(methyl-d2))pyridin-2(1H)-one]
[2H]c1c([2H])c(-n2cc(C([2H])([2H])O)ccc2=O)c([2H])c([2H])c1OC([2H])([2H])[2H] [Compound 156, 5-(Hydroxyl(methyl-d2))-1-(4-(methoxy-d3)phenyl-d4)pyridin-2(1H)-one]
